The subject of data set [1] is human red blood cells (RBCs). In words: Haemolysis assay. Format: cell-based. As to conditions: for % haemolysis: human RBCs; for H5, concentration at which 5% haemolysis has been obtained: purified human erythrocytes, assay as in Etzerodt et al. [14]. From the text: All Fmoc (9H-fluoren-9-yl-methyloxycarbonyl) L-amino acids and HATU (1-[Bis(dimethylamino)methylene]-1H-1,2,3-triazolo[4,5-b]pyridinium 3-oxid hexafluorophosphate, N-[(Dimethylamino)-1H-1,2,3-triazolo-[4,5-b]pyridin-1-ylmethylene]-N-methylmethanaminium hexafluorophosphate N-oxide) were purchased from GLS China (GL Biochem, Shanghai, China). Fmoc-2-amino-decanoic acid was obtained from Watanabe Chemical Industries, Ltd (Hiroshima, Japan). Lys and Trp were side-chain-protected as tert-butoxycarbonyl, Asn was sidechain protected with trityl. Tentagel resin was purchased from NovaBiochem (Merck, Darmstadt, Germany). TFA (trifluoroacetic acid), TIS (triisopropylsilane), HEPES (N-(2-hydroxyethyl)piperazine-N-(2-ethanesulfonic acid)), 2,4,6-collidine and pyrene were purchased from Sigma-Aldrich (Brøndby, Denmark). Pyridine, sodium hydroxide pellets and sodium chloride was purchased from J.T. Baker Chemicals (Phillipsburg, NJ, USA). Filter supports and Hamilton extrusion syringes, POPG (1-palmitoyl-2-oleoyl-sn-glycero-3-[phospho-rac-(1-glycerol)] sodium salt), and POPC (1-palmitoyl-2-oleoyl-sn-glycero-3-phosphocholine) were purchased from Avanti Polar Lipids (Alabaster, AL). All compounds were used without further purification. Membrane filters for extrusion (100 nm pore size, polycarbonate) were purchased from Whatman (Maidstone, UK). Cuvettes (4×10 mm, quartz, Suprasil) were purchased from Hellma (Müllheim, Germany). Purified human erythrocytes for the haemolysis studies were provided by Bioneer (Hørsholm, Denmark), and were stored at 4°C for a maximum of three days before use.
The assay was conducted as described in Etzerodt et al..

Data set [2] concerns Escherichia coli, strain INV-α. In words: Determination of minimal inhibitory concentration (MIC). Format: cell-based. As to conditions: LB medium, 37°C, 20 h, shaking, peptide 0.05–50 µM, absorbance 570 nm, triplicates. As for the experimental part:
(§1) A stock dilution series with ten points, ranging from 1 µM to 1 mM, was prepared in sterile PBS from freshly dissolved peptides. The dilution series was dispensed in triplicates in 96-deepwell microtiter plates (VWR Denmark, Herlev, Denmark), with 15 µl in each well. Multidispensing with electronic pipettes (Biohit, Tåstrup, Denmark) was used throughout. Lactococcus lactis, strain MG1363 (ATCC, LGC Standards AB, Boras, Sweden) and Escherichia coli, strain INV-α (Invitrogen, Nærum, Denmark) were grown in M9 (Sigma Aldrich, Brøndby, Denmark) and LB medium (Difco, BD Biosciences, Brøndby Denmark), respectively. A single colony was grown overnight at 30°C and 37°C for L.lactis and E.coli respectively. The next day, a fresh culture was started with a twenty-fold dilution of the cells and grown for exactly 60 min (optical density was approximately 0.4 at 570 nm). The cell culture was diluted (300 fold for L.lactis and 1000 fold for E.coli) before adding 150 µl to microtiter plates already containing 15 µl peptide solution and 135 µl fresh medium. […] Plates with L.lactis were sealed with lid and parafilm, and plates with E.coli were sealed with a gas-permeable tape (VWR Denmark, Herlev, Denmark). The plates were incubated at the respective temperatures for 20 hours with shaking (150 rpm). For each measurement, 100 µl of the cell culture was transferred to clear, flat-bottomed microtiter plates, and the absorbance at 570 nm was determined using a Victor3 plate reader (Perkin Elmer, Skovlunde, Denmark). The measurement was conducted in triplicates.

Data set [3] relates to Lactococcus lactis, strain MG1363. Described as above. Format: cell-based. As to conditions: strain MG1363, M9 medium, 30°C, 20 h, shaking; peptide 0.05–50 µM; absorbance 570 nm; triplicates. On the procedure:
as §1

The nature of data set [4]: Peptide partitioning by ITC. In kind it is physicochemical. The following applies: 37°C; for partition coefficient of insertion Kins/10^5: 10 mM POPC∶POPG (3∶1) LUVs into 20 µM peptide, pH 7.4, Gouy-Chapman-Stern fit, value is Kins divided by 10^5, triplicates; for effective partition coefficient Keff/10^8: derived from Kins, zeff and the surface potential of fully charged membrane (25 mol% negative charge), value is Keff divided by 10^8. On the procedure:
Lipid stock solutions of POPC and POPG were prepared in chloroform∶methanol (9∶1). Mixtures of POPC∶POPG (3∶1) were prepared and the organic solvent was evaporated under a gentle stream of nitrogen. The lipid films were kept in vacuum (P<0.1 Pa) overnight in order to remove the residual solvent. Buffer containing 10 mM HEPES and 100 mM sodium chloride (pH 7.4) was added to the lipid films, and they were hydrated for 60 min followed by extrusion through 100 nm using an Avanti mini-extruder. Dynamic Light Scattering (DLS, Brookhaven Instrument Corporation, ZetaPALS) was used for measuring the liposome size distribution. The effective lipid concentration was determined by inductively coupled plasma atomic emission spectroscopy (ICP-AES Vista AX, Varian).
The partitioning of AMPs onto lipid membranes was investigated by isothermal titration calorimetry (ITC, iTC200, Microcal, 204 µL cell volume). For the peptide analogues MPX, Ala1 and Ala14, 10 mM […] (3∶1) LUVs were injected (19×2 µL) into a 20 µM peptide solution at T = 37°C. The speed of the stirrer was 1000 rpms, and all titration were initiated with a 0.5 µL pre-injection. The heat-traces were integrated using custom made software, and the heat of partitioning was analysed using a partitioning isotherm based on Gouy-Chapman-Stern description of the electrostatic interaction of the peptide and membrane, [32]. The effective charge of the peptide (zeff), the partitioning coefficient of insertion (Kins), the molar enthalpy of partitioning ( [drawing 4] ), and the heat of dilution (qdil) were extracted as fitting parameters. The effective partitioning coefficient was derived as [drawing 5] where F is Faradays constant, [drawing 6] is the electrostatic potential evaluated at the interface of a fully charged membrane (25mol% negative charge before insertion of the first peptide), and R is the ideal gas constant. The instrument was electrically calibrated, and blank titration of LUVs into buffer was performed to ensure that heat of dilution could be modelled as a constant in the data analysis. Each titration was conducted in triplicates.

≈ marks a conversion by molar mass, not a printed value. Square brackets hold non-standard residues; d marks the D form. Ends that are not written are not given here. Peptide text beside a SMILES is read from it. * marks the point of attachment. ξ: configuration not given here. ξGly(octyl) = CCCCCCCCC(N)C(=O)O; Octanoyl = CCCCCCCC(=O)*; Propionyl = CCC(=O)*

In the case of `CCCCCCCCC(N)C(=O)N[C@@H](CC(N)=O)C(=O)N[C@@H](Cc1c[nH]c2ccccc12)C(=O)N[C@@H](CCCCN)C(=O)NCC(=O)N[C@H](C(=O)N[C@@H](C)C(=O)N[C@@H](C)C(=O)N[C@@H](CCSC)C(=O)N[C@@H](C)C(=O)N[C@@H](CCCCN)C(=O)N[C@@H](CCCCN)C(=O)N[C@@H](CC(C)C)C(=O)N[C@@H](CC(C)C)C(N)=O)[C@@H](C)CC` (stereo partly shown) [Adec1] (H-[ξGly(octyl)]NWKGIAAMAKKLL-NH2), the “% haemolysis” value in data set [1] (50 µM peptide) is “full haemolysis”. The “H5, concentration at which 5% haemolysis has been obtained” value in data set [1] was 0.7 ± 0.1 µM. Moreover, in data set [2], the “MIC (E. coli)” value was found to be 3.3 ± 0.8 µM (≈ 5.32 µg/mL). Also, the “MIC (L. lactis)” value in data set [3] amounted to 1.7 ± 0.4 µM (≈ 2.74 µg/mL).

On to `CCCCCCCCC(NC(=O)[C@H](C)NC(=O)[C@@H](NC(=O)CNC(=O)[C@H](CCCCN)NC(=O)[C@H](Cc1c[nH]c2ccccc12)NC(=O)[C@H](CC(N)=O)NC(=O)[C@@H](N)[C@@H](C)CC)[C@@H](C)CC)C(=O)N[C@@H](CCSC)C(=O)N[C@@H](C)C(=O)N[C@@H](CCCCN)C(=O)N[C@@H](CCCCN)C(=O)N[C@@H](CC(C)C)C(=O)N[C@@H](CC(C)C)C(N)=O` (stereo partly shown) [Adec8] (H-INWKGIA[ξGly(octyl)]MAKKLL-NH2), for which, in data set [1] (50 µM peptide), the “% haemolysis” value is “full haemolysis”. In addition, the “H5, concentration at which 5% haemolysis has been obtained” value in data set [1] was 1 ± 1 µM. The “MIC (E. coli)” value in data set [2] was found to be 4.2 ± 0.8 µM (≈ 6.95 µg/mL). Also, the “MIC (L. lactis)” value in data set [3] came to 4.2 ± 0.8 µM (≈ 6.95 µg/mL).

With `CCCCCCCCC(NC(=O)[C@H](CC(C)C)NC(=O)[C@H](CCCCN)NC(=O)[C@H](CCCCN)NC(=O)[C@H](C)NC(=O)[C@H](CCSC)NC(=O)[C@H](C)NC(=O)[C@H](C)NC(=O)[C@@H](NC(=O)CNC(=O)[C@H](CCCCN)NC(=O)[C@H](Cc1c[nH]c2ccccc12)NC(=O)[C@H](CC(N)=O)NC(=O)[C@@H](N)[C@@H](C)CC)[C@@H](C)CC)C(N)=O` (stereo partly shown) [Adec14] (H-INWKGIAAMAKKL[ξGly(octyl)]-NH2), the “% haemolysis” value in data set [1] (50 µM peptide) is reported as “full haemolysis”. Besides, in data set [1], the “H5, concentration at which 5% haemolysis has been obtained” value was determined as 0.8 ± 0.2 µM. In addition, the “MIC (E. coli)” value in data set [2] turned out to be 3.3 ± 0.8 µM (≈ 5.32 µg/mL). The “MIC (L. lactis)” value in data set [3] was determined as 1.7 ± 0.4 µM (≈ 2.74 µg/mL).

On to `CCCCCCCC(=O)N[C@H](C(=O)N[C@@H](CC(N)=O)C(=O)N[C@@H](Cc1c[nH]c2ccccc12)C(=O)N[C@@H](CCCCN)C(=O)NCC(=O)N[C@H](C(=O)N[C@@H](C)C(=O)N[C@@H](C)C(=O)N[C@@H](CCSC)C(=O)N[C@@H](C)C(=O)N[C@@H](CCCCN)C(=O)N[C@@H](CCCCN)C(=O)N[C@@H](CC(C)C)C(=O)N[C@@H](CC(C)C)C(N)=O)[C@@H](C)CC)[C@@H](C)CC` [OAMPX] (Octanoyl-INWKGIAAMAKKLL-NH2), for which, in data set [1] (50 µM peptide), the “% haemolysis” value is given as “full haemolysis”. Moreover, the “H5, concentration at which 5% haemolysis has been obtained” value in data set [1] amounted to 1.1 ± 0.3 µM. Besides, the “MIC (E. coli)” value in data set [2] was 5 ± 1 µM (≈ 8.41 µg/mL). The “MIC (L. lactis)” value in data set [3] worked out at 3.3 ± 0.8 µM (≈ 5.55 µg/mL).

Turning to `CCC(=O)N[C@H](C(=O)N[C@@H](CC(N)=O)C(=O)N[C@@H](Cc1c[nH]c2ccccc12)C(=O)N[C@@H](CCCCN)C(=O)NCC(=O)N[C@H](C(=O)N[C@@H](C)C(=O)N[C@@H](C)C(=O)N[C@@H](CCSC)C(=O)N[C@@H](C)C(=O)N[C@@H](CCCCN)C(=O)N[C@@H](CCCCN)C(=O)N[C@@H](CC(C)C)C(=O)N[C@@H](CC(C)C)C(N)=O)[C@@H](C)CC)[C@@H](C)CC` [PAMPX] (Propionyl-INWKGIAAMAKKLL-NH2), in data set [1] (50 µM peptide), the “% haemolysis” value came to 10%. In addition, the “H5, concentration at which 5% haemolysis has been obtained” value in data set [1] was determined as 25 ± 1 µM. For the same compound, the “MIC (E. coli)” value in data set [2] was found to be 21 ± 4 µM (≈ 33.9 µg/mL). The “MIC (L. lactis)” value in data set [3] was 3.3 ± 0.8 µM (≈ 5.32 µg/mL).

As to ANWKGIAAMAKKLL-NH2 [Ala1], in data set [4], the “partition coefficient of insertion Kins/10^5” value is on record as 1.1±0.1. For the same compound, the “effective partition coefficient Keff/10^8” value in data set [4] came out at 25±7. Besides, the “% haemolysis” value in data set [1] (50 µM peptide) is on record as around 1.5%; in data set [1] (200 µM peptide), around 4%. Further, the “H5, concentration at which 5% haemolysis has been obtained” value in data set [1] amounted to 230 ± 10 µM. For the same compound, the “MIC (E. coli)” value in data set [2] amounted to 33 ± 8 µM. In addition, the “MIC (L. lactis)” value in data set [3] is 18 ± 7 µM.

With INWKGIAAMAKKLA-NH2 [Ala14], in data set [4], the “partition coefficient of insertion Kins/10^5” value was 1.4±0.3 and the “effective partition coefficient Keff/10^8” value is given as 1.1±0.2. Further, the “% haemolysis” value in data set [1] (50 µM peptide) was around 1.5%. The “% haemolysis” value in data set [1] (200 µM peptide) is on record as around 4%. Besides, in data set [1], the “H5, concentration at which 5% haemolysis has been obtained” value worked out at 220 ± 20 µM. Besides, the “MIC (E. coli)” value in data set [2] was found to be 33 ± 8 µM. Also, in data set [3], the “MIC (L. lactis)” value came out at 21 ± 4 µM.

Take INWKGIALMAKKLL-NH2 [Leu8]: the “H5, concentration at which 5% haemolysis has been obtained” value in data set [1] came to 14 ± 2 µM. In addition, the “MIC (E. coli)” value in data set [2] came out at 7 ± 3 µM. In addition, the “MIC (L. lactis)” value in data set [3] stood at 2.5 ± 1.3 µM.
